Three compounds from patent publication US10568945B2, “Compositions and methods for inducing liver regeneration by administering hepatocyte-derived exosomes” (University of Cincinnati, priority 2014, dated 2020) can be followed below.

Data set [1] has as its system primary mouse hepatocytes. Nature of the data set: Hepatocyte proliferation (BrdU incorporation). On the technique in general: Incorporation of labelled thymidine or its analogues reports DNA synthesis.
Description: (A) Primary mouse hepatocytes from wild-type mice were treated with increasing doses of exosomes derived from wild-type or CXCR2-deficient hepatocytes for 24 hrs. Cell proliferation was determined via BrdU incorporation. Data are mean±SEM with n=8-16 per group. *P<0.05 compared to control mice. **P<0.05 compared to untreated samples.
Hepatocytes were treated with hepatocyte-derived exosomes for 24 hrs. DNA incorporation of 5-bromo-20-deoxyuridine (BrdU) was employed to evaluate hepatocyte proliferation by exosomes, and data were normalized by the amount of viable cells and expressed as a ratio compared with medium alone. A commercial BrdU cell proliferation ELISA system (Abcam, Cambridge, UK) was used for this assay.
In data set [2] the test system is isolated wildtype and CXCR2-deficient hepatocytes. Nature of the data set: Release of exosomes from isolated hepatocytes (CD81 antigen ELISA). In kind it is cell-based, mouse. Particulars: GW4869 for 48 hrs. The method, then:
FIG. 2. CXCR2 regulates the neutral sphingomyelinase/ceramide system to release exosomes. (A) CXCR2-deficient cells show higher concentrations of ceramide than wildtype hepatocytes as determined by staining of isolated hepatocytes with Cy3-coupled anti-ceramide antibodies (A, upper panel). The intensity of the fluorescence staining in panel a reflects ceramide levels. […] Data are representative for 4 similar stainings. (B) Ceramide activity in hepatocytes was determined by a ceramide kinase assay. Data are mean±SEM with n=4 per group. *P<0.05 compared to wild-type mice. (C) Neutral sphingomyelinase activity is increased in CXCR2-deficient hepatocytes compared to wild-type mice. Data are mean±SEM with n=4 per group. *P<0.05 compared to wild-type mice. […] Cells were treated with GW4869 for 48 hrs in Williams media supplemented with exosome-depleted FBS and the number of exosomes was determined using differential centrifugation and detection of exosomes using a CD81 antigen ELISA kit. Data are mean±SEM with n=4 per group, *P<0.05 compared to wild-type mice. […]
Exosomes were purified from serum and the culture media. […] The size of exosomes in the serum and the culture medium was determined using a Zetasizer Nano (Malvern Instruments, Malvern, UK) and the number of exosomes was assessed by the CD81-antigen ELISA kit (System Biosciences).
On the technique in general: An ELISA detects its analyte on a solid surface through an enzyme-linked reagent.

The subject of data set [3] is sphingosine-1-phosphate (S1P) in hepatocytes. Nature of the data set: Measurement of S1P in hepatocytes by ELISA. Particulars: pre-incubation of hepatocytes with SPHK I2 (20 μM). In kind it is cell-based, mouse.

Entries after “also recorded” stand apart in the source; their conditions may differ.

For the compound `Nc1ncnc2c1ncn2[C@@H]1O[C@H](COC(=O)c2ccc(S(=O)(=O)F)cc2)[C@@H](O)[C@H]1O` [FSBA], the exosome-induced hepatocyte proliferation result in data set [1] (exosomes treated with FSBA, washed, then added to primary hepatocytes) is “completely blocked”. `O=C(/C=C/c1ccc(/C=C/C(=O)Nc2ccc(C3=NCCN3)cc2)cc1)Nc1ccc(C2=NCCN2)cc1` [GW4869]: the “concentration/release of exosomes from hepatocytes” value in data set [2] is “dose dependently blocked; also recorded: dose-dependently reduced”. For `Oc1ccc(Nc2nc(-c3ccc(Cl)cc3)cs2)cc1` [SPHK I2], the “exosome-induced production of S1P in hepatocytes” value in data set [3] is reported as “prevented; also recorded: completely blocked”. For the same compound, the exosome-induced hepatocyte proliferation entry in data set [1] (hepatocytes treated with 5-20 μM SPHK I2) was “completely abrogated”.
